Results reported in paper PMC11562385 (RSC Chemical Biology, 2024).
Peptide text beside a SMILES is read from it.

How the values were obtained:
PD1:PDL1 interaction = target: T1, PD1:PDL1 interaction (Homo sapiens, UniProt Q15116); test: PD1/PDL1 immunoblocking ELISA (BPS Bioscience kit cat # 72005); assay type: binding
T1 construct: purchased BPS Bioscience 72005

[1] = target: T2, cell surface PD1 on CD3+/CD8+ cells of h-PBMCs (Homo sapiens, UniProt Q15116); test: In cellulo PD1 blockade on h-PBMCs by flow cytometry; assay type: cell-based; settings: h-PBMC cultures, 30 h, n = 3
T2 construct: endogenous in cells; host or cells: healthy human PBMCs (CD45+, CD3+/CD8+ gated)
T2 sequence (Q15116 25-288): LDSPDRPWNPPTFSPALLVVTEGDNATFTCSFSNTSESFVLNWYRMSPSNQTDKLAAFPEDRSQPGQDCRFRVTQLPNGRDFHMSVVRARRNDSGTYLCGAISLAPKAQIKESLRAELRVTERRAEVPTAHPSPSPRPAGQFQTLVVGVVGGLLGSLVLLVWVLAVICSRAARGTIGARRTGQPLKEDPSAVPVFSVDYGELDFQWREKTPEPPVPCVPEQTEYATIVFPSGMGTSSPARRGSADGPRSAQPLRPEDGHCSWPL
Description: Then, an ex vivo immune cell culture system using h-PBMCs and exhausted PBMCs from a melanoma patient (e-PBMCs) was used to determine the efficacy of selected ADAPTin peptides on T-effector cells (Fig. 6).[91,92] T-cell exhaustion typically leads to a reduction in cytokine release, cytotoxic activity, as well as slower T-cell proliferation.

T1 sequence (Q15116 25-167 limits assumed): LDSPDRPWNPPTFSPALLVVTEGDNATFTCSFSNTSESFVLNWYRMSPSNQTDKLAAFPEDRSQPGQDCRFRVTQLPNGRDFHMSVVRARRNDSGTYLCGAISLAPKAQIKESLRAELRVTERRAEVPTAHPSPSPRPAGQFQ

Compound: CSCC[C@H](NC(=O)CNC(=O)[C@H](CCC(=O)O)NC(=O)[C@H](CCCNC(=N)N)NC(=O)[C@H](C)NC(=O)[C@@H](NC(=O)[C@H](Cc1c[nH]c2ccccc12)NC(=O)[C@@H](N)CCCNC(=N)N)C(C)C)C(=O)N[C@@H](CC(N)=O)C(=O)N[C@H](C(=O)N[C@@H](CC(=O)O)C(=O)NCC(=O)N[C@@H](Cc1ccc(O)cc1)C(=O)N[C@@H](Cc1ccccc1)C(=O)N[C@@H](CC(N)=O)C(=O)N[C@@H](Cc1ccc(O)cc1)C(=O)N[C@@H](Cc1c[nH]c2ccccc12)C(=O)N[C@H](C(=O)N[C@@H](Cc1c[nH]c2ccccc12)C(=O)N[C@@H](CCC(=O)O)C(=O)O)C(C)C)[C@@H](C)O [2p] (H-RWVAREGMNTDGYFNYWVWE-OH)
- EC50 (PD1:PDL1 interaction): 160 nM
- PD1 blockade on CD3+/CD8+ T-effector cells [1]: < 20%
